According to PubChem BioAssay (NCI):
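Values below derive from 48-hour exposures of cells grown in 96-well plates, with endpoints linearly interpolated between the two concentrations bracketing the appropriate inhibition level. Definition used: TGI = concentration required for complete inhibition of growth.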

Assays:
Test in all cases: growth of human tumour cells (NCI), 48 h
HOP-62 NSCLC = test system: HOP-62 NSCLC
EKVX NSCLC = test system: EKVX NSCLC
M14 melanoma = test system: M14 melanoma
OVCAR-3 ovarian = test system: OVCAR-3 ovarian
DU-145 prostate = test system: DU-145 prostate
OVCAR-8 ovarian = test system: OVCAR-8 ovarian
SF-268 CNS = test system: SF-268 CNS
HCC-2998 colon = test system: HCC-2998 colon
K-562 leukemia = test system: K-562 leukemia
CCRF-CEM leukemia = test system: CCRF-CEM leukemia
SNB-75 CNS = test system: SNB-75 CNS
HOP-92 NSCLC = test system: HOP-92 NSCLC
HS 578T breast = test system: HS 578T breast
A549 NSCLC = test system: A549 NSCLC
HT29 colon = test system: HT29 colon
MOLT-4 leukemia = test system: MOLT-4 leukemia
786-0 renal = test system: 786-0 renal
SF-295 CNS = test system: SF-295 CNS

Compound | TGI (HOP-62 NSCLC) | TGI (EKVX NSCLC) | TGI (M14 melanoma) | TGI (OVCAR-3 ovarian) | TGI (DU-145 prostate) | TGI (OVCAR-8 ovarian) | TGI (SF-268 CNS) | TGI (HCC-2998 colon) | TGI (K-562 leukemia) | TGI (CCRF-CEM leukemia) | TGI (SNB-75 CNS) | TGI (HOP-92 NSCLC) | TGI (HS 578T breast) | TGI (A549 NSCLC) | TGI (HT29 colon) | TGI (MOLT-4 leukemia) | TGI (786-0 renal) | TGI (SF-295 CNS)
CN(C)c1ccc(/C=C/C(=O)c2ccc(O)cc2)cc1 | > 100 µM | > 100 µM | > 100 µM | 9.37 µM | 63.5 µM | > 100 µM | > 100 µM | 38.1 µM | 8.38 µM | 17.4 µM | > 42.7 µM | > 100 µM | > 69.7 µM | > 100 µM | 29.9 µM | 21 µM | > 78.3 µM | > 41.6 µM
COc1ccc(C(O)/C(=N/N)c2nc3ccc(Cl)cc3[nH]c2=O)cc1 (stereo not drawn) | > 100 µM | > 100 µM | > 100 µM | > 100 µM | > 100 µM | > 100 µM | > 100 µM | > 100 µM | > 100 µM | > 100 µM | > 100 µM | > 100 µM | > 100 µM | > 100 µM | > 100 µM | > 100 µM | > 100 µM | > 100 µM
C[C@]12C=CC(=O)C=C1CC[C@@H]1[C@@H]2CC[C@@]2(C)[C@H]1CC[C@]2(O)C(N)=O | > 100 µM | > 100 µM | > 100 µM | > 100 µM | > 100 µM | > 100 µM | > 100 µM | > 100 µM | > 100 µM | > 100 µM | > 100 µM | > 100 µM | > 100 µM | > 100 µM | > 100 µM | > 100 µM | > 100 µM | > 100 µM
C#CC[C@@H]1C(=O)N(Cc2ccc(OC)cc2)[C@@H](C(C)C)C(=O)N1Cc1ccc(OC)cc1 | > 100 µM | 69 µM | > 100 µM | > 100 µM | > 100 µM | > 100 µM | > 100 µM | > 100 µM | > 100 µM | 36.2 µM | 95 µM | > 100 µM | > 100 µM | > 100 µM | 55.1 µM | 34.7 µM | > 100 µM | > 100 µM
COC(=O)C(CC(C)C)NC(=O)C(NC(=O)c1ccc(-c2ccc(Cl)cc2Cl)o1)C(C)C (stereo not drawn) | 65.4 µM | 62.6 µM | 65.8 µM | 42.2 µM | 74.4 µM | > 100 µM | 56.6 µM | 31.7 µM | 53.1 µM | 33.2 µM | > 100 µM | 45.9 µM | 60.8 µM | > 100 µM | 42.6 µM | 44.7 µM | 35.1 µM | 52.6 µM
FC(F)(F)c1ccc(C2ON=C(c3ccccc3)N2C23CC4CC(CC(C4)C2)C3)cc1 (stereo not drawn) | > 10 µM | > 10 µM | > 10 µM | > 10 µM | > 10 µM | > 10 µM | > 10 µM | > 10 µM | > 10 µM | > 10 µM | > 10 µM | > 10 µM | > 10 µM | > 10 µM | > 10 µM | > 10 µM | > 10 µM | > 10 µM
CC(=O)CCCCn1c(=O)c2c(nc(Br)n2C)n(C)c1=O | > 100 µM | 84.1 µM | > 100 µM | > 100 µM | > 100 µM | > 100 µM | > 100 µM | > 100 µM | > 100 µM | > 100 µM | > 100 µM | 31.7 µM | > 100 µM | > 100 µM | > 100 µM | > 100 µM | > 100 µM | > 100 µM
Cc1cccc(C2ON=C(c3ccccc3)N2C23CC4CC(CC(C4)C2)C3)c1 (stereo not drawn) | > 10 µM | > 10 µM | > 10 µM | > 10 µM | > 10 µM | > 10 µM | > 10 µM | > 10 µM | > 10 µM | > 10 µM | > 10 µM | > 10 µM | > 10 µM | > 10 µM | > 10 µM | > 10 µM | > 10 µM | > 10 µM
CS(=O)(=O)N1CC(CCl)c2ccc(NO)cc21 (stereo not drawn) | 47.4 µM | 32.5 µM | 34.3 µM | 40.7 µM | > 100 µM | 27.9 µM | 22.5 µM | 28.5 µM | 8.58 µM | 5.1 µM | 32.3 µM | 27.9 µM | 60 µM | > 100 µM | 29.4 µM | 19 µM | 28 µM | 61.9 µM
CNC(=O)c1n[nH]n(C2CCCCC2)c1=S | > 100 µM | > 100 µM | > 100 µM | 37 µM | > 100 µM | > 100 µM | > 100 µM | > 100 µM | > 100 µM | > 100 µM | > 100 µM | > 100 µM | > 100 µM | > 100 µM | > 100 µM | > 100 µM | > 100 µM | > 100 µM
C=C1CC(C)(COc2ccc3c(C)c(Cl)c(=O)oc3c2)OC1=O (stereo not drawn) | 34.5 µM | 20.8 µM | 3.65 µM | 16.9 µM | 6.8 µM | 17.3 µM | 19.2 µM | 4.27 µM | 5.98 µM | 2.54 µM | 7.95 µM | 4.41 µM | > 100 µM | 25.5 µM | 3.48 µM | 3.24 µM | 4.65 µM | 21.4 µM
